Results from BigSolDB 2.1.

O=P1(C(Nc2ccccc2)c2ccccc2)OCC2(CO1)COP(=O)(C(Nc1ccccc1)c1ccccc1)OC2 (centres undefined)
Conditions	solubility (mole fraction)
in 1,2-dichloroethane, 283.35 K	0.000119
in 1,2-dichloroethane, 288.25 K	0.000127
in 1,2-dichloroethane, 293.3 K	0.00014
in 1,2-dichloroethane, 297.95 K	0.000153
in 1,2-dichloroethane, 303.45 K	0.000163
in 1,2-dichloroethane, 308.35 K	0.000176
in 1,2-dichloroethane, 313.45 K	0.00019
in 1,2-dichloroethane, 318.25 K	0.000208
in 1,2-dichloroethane, 323.45 K	0.000219
in 1,2-dichloroethane, 327.95 K	0.000231
in 1,2-dichloroethane, 333.35 K	0.000249
in 1,2-dichloroethane, 338.15 K	0.000271
in 1,4-dioxane, 283.15 K	7.3e-05
in 1,4-dioxane, 288.35 K	8.4e-05
in 1,4-dioxane, 293.25 K	0.0001
in 1,4-dioxane, 298.35 K	0.000121
in 1,4-dioxane, 303.15 K	0.000146
in 1,4-dioxane, 308.25 K	0.000176
in 1,4-dioxane, 313.45 K	0.000202
in 1,4-dioxane, 318.65 K	0.000248
in 1,4-dioxane, 323.55 K	0.000286
in 1,4-dioxane, 328.25 K	0.000332
in 1,4-dioxane, 333.2 K	0.000417
in 1,4-dioxane, 338.3 K	0.000479
in THF, 288.45 K	0.00381
in THF, 293.25 K	0.00428
in THF, 298.15 K	0.00481
in THF, 303.15 K	0.0053
in THF, 308.65 K	0.00588
in THF, 313.45 K	0.00645
in THF, 318.45 K	0.00711
in THF, 323.55 K	0.00788
in THF, 328.35 K	0.00862
in THF, 333.25 K	0.01
in THF, 338.15 K	0.0108
in acetic acid, 298.25 K	0.000115
in acetic acid, 303.65 K	0.000156
in acetic acid, 308.15 K	0.000194
in acetic acid, 313.25 K	0.000233
in acetic acid, 318.25 K	0.000288
in acetic acid, 323.15 K	0.000326
in acetic acid, 328.25 K	0.000348
in acetic acid, 333.45 K	0.000406
in acetic acid, 338.15 K	0.000444
in acetone, 283.35 K	9.1e-05
in acetone, 288.25 K	0.000101
in acetone, 293.25 K	0.00011
in acetone, 298.3 K	0.000123
in acetone, 303.35 K	0.000136
in acetone, 308.45 K	0.000151
in acetone, 313.25 K	0.000164
in acetone, 318.55 K	0.000183
in acetone, 323.25 K	0.000205
in acetone, 328.35 K	0.000221
in acetonitrile, 288.3 K	3.6e-05
in acetonitrile, 293.2 K	4.5e-05
in acetonitrile, 298.25 K	5.5e-05
in acetonitrile, 303.15 K	6.1e-05
in acetonitrile, 308.25 K	7.6e-05
in acetonitrile, 313.2 K	8.7e-05
in acetonitrile, 317.95 K	9.8e-05
in acetonitrile, 323.55 K	0.000121
in acetonitrile, 328.45 K	0.000146
in acetonitrile, 333.15 K	0.000169
in acetonitrile, 338.25 K	0.000194
in benzene, 283.25 K	3.1e-05
in benzene, 288.35 K	4.3e-05
in benzene, 293.15 K	6.4e-05
in benzene, 298.45 K	8.2e-05
in benzene, 303.35 K	9.8e-05
in benzene, 308.45 K	0.000123
in benzene, 313.25 K	0.000145
in benzene, 318.3 K	0.000178
in benzene, 323.35 K	0.000199
in benzene, 328.25 K	0.000218
in benzene, 333.15 K	0.000239
in benzene, 338.35 K	0.000266
in dichloromethane, 283.25 K	0.000164
in dichloromethane, 288.3 K	0.000202
in dichloromethane, 293.35 K	0.000268
in dichloromethane, 298.25 K	0.000308
in dichloromethane, 303.35 K	0.000342
in dichloromethane, 308.15 K	0.000388
in dichloromethane, 313.25 K	0.000423
in diethyl ether, 283.35 K	5.5e-05
in diethyl ether, 288.15 K	8.6e-05
in diethyl ether, 292.95 K	0.000126
in diethyl ether, 298.65 K	0.000213
in diethyl ether, 303.25 K	0.000299
in ethanol, 288.25 K	4e-05
in ethanol, 293.15 K	5e-05
in ethanol, 303.25 K	7.4e-05
in ethanol, 308.55 K	9e-05
in ethanol, 313.45 K	0.000113
in ethanol, 317.85 K	0.000141
in ethanol, 323.25 K	0.00017
in ethanol, 328.25 K	0.0002
in ethanol, 333.25 K	0.000243
in ethanol, 338.25 K	0.000285
in ethanol, 343.15 K	0.00036
in isopropanol, 283.45 K	0.000107
in isopropanol, 287.95 K	0.000131
in isopropanol, 293.45 K	0.000156
in isopropanol, 298.15 K	0.000176
in isopropanol, 303.25 K	0.000209
in isopropanol, 308.15 K	0.000234
in isopropanol, 313.25 K	0.000256
in isopropanol, 318.15 K	0.000289
in isopropanol, 323.65 K	0.000312
in isopropanol, 328.55 K	0.000348
in isopropanol, 333.3 K	0.000393
in isopropanol, 338.5 K	0.000414
in toluene, 283.15 K	0.000765
in toluene, 288.25 K	0.00117
in toluene, 293.25 K	0.0015
in toluene, 298.45 K	0.00199
in toluene, 303.15 K	0.00238
in toluene, 308.15 K	0.00287
in toluene, 313.45 K	0.00344
in toluene, 318.65 K	0.00388
in toluene, 323.25 K	0.00449
in toluene, 328.25 K	0.00494
in toluene, 333.25 K	0.00542
in toluene, 338.25 K	0.00614
